Data taken from paper PMC12673082 (Nature Communications, 2025).
Where a chain is given by its changes, count along the chain named. Blank lines part the entries; values can stand above or below the molecule they belong to.

Assays:
human P2X7 [1] = conditions: cited from earlier work
hP2X7 = target: T1, hP2X7 (Homo sapiens, UniProt Q99572); test: Whole-cell patch clamp, ATP-evoked current, transfected HEK293; format: cell-based
T1 sequence (Q99572 1-595): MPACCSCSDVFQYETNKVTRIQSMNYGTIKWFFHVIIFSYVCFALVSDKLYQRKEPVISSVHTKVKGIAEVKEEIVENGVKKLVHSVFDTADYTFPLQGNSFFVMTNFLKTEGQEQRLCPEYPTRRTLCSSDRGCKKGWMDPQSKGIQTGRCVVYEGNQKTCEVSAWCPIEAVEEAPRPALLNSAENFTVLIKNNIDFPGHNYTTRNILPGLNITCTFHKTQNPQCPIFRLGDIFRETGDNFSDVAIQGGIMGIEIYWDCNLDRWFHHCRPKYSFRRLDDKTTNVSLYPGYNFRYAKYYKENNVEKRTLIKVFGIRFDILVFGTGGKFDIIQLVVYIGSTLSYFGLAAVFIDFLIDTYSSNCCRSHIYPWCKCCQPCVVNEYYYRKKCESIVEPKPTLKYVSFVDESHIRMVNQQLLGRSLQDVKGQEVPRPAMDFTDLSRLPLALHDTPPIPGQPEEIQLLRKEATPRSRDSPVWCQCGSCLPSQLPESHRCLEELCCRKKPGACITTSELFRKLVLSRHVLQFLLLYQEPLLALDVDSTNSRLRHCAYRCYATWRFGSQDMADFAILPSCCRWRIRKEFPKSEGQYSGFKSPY

mP2X7 = target: T2, mP2X7 (Mus musculus, UniProt Q9Z1M0); test: as above; format: cell-based
T2 sequence (Q9Z1M0 1-595): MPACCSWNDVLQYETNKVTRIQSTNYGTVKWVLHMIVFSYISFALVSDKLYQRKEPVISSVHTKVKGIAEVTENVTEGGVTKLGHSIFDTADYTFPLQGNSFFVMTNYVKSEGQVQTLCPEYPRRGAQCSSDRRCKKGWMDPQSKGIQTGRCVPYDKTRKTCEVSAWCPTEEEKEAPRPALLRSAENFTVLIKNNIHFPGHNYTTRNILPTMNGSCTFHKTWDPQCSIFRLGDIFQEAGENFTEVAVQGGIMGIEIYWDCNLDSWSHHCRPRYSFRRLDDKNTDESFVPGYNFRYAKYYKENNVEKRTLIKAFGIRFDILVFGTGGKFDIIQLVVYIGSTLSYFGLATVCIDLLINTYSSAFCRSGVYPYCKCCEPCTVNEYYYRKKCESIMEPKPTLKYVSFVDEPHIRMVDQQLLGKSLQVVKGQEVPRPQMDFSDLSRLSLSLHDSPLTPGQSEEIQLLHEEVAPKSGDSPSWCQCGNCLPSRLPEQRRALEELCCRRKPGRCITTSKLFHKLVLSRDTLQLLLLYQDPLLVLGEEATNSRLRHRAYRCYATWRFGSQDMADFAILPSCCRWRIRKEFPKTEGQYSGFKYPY

rP2X7 = target: T3, rP2X7 (Rattus norvegicus, UniProt Q64663); test: as above; format: cell-based; conditions: HEK293, read-out: inhibition rate
T3 sequence (Q64663 1-595): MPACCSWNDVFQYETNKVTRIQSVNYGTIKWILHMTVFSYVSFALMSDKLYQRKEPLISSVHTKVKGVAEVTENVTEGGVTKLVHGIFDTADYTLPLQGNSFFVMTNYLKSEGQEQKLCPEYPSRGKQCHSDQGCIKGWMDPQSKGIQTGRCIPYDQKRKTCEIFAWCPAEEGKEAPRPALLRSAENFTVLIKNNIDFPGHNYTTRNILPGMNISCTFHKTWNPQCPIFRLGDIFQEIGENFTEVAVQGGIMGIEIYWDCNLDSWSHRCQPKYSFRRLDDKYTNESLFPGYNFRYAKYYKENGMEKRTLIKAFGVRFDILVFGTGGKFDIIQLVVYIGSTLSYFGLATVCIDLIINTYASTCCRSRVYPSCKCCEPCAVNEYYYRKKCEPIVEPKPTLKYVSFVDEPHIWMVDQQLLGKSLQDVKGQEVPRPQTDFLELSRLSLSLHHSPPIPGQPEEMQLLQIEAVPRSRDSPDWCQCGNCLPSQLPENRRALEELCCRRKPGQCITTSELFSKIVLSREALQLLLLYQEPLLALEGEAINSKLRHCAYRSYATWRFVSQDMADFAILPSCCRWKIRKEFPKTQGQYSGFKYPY

hP2X7 I68F = hP2X7 I68F (Homo sapiens, UniProt Q99572, I68F); test: Whole-cell patch clamp, hP2X7 mutant; format: cell-based
hP2X7 F88A = hP2X7 F88A (Homo sapiens, UniProt Q99572, F88A); test: Whole-cell patch clamp, hP2X7 mutant; format: cell-based; conditions: h7F88A, 30 μM (Fig. S3b)
hP2X7 F103A = hP2X7 F103A (Homo sapiens, UniProt Q99572, F103A); test: Whole-cell patch clamp, hP2X7 mutant; format: cell-based; conditions: h7F103A, 30 μM (Fig. S3b)
hP2X7 M140E = hP2X7 M140E (Homo sapiens, UniProt Q99572, M140E); test: Whole-cell patch clamp, hP2X7 mutant; format: cell-based; conditions: h7M140E, 30 μM (Fig. S3b)
hP2X7 Y295F = hP2X7 Y295F (Homo sapiens, UniProt Q99572, Y295F); test: Whole-cell patch clamp, hP2X7 mutant; format: cell-based
hP2X7 E305F = hP2X7 E305F (Homo sapiens, UniProt Q99572, E305F); test: Whole-cell patch clamp, hP2X7 mutant; format: cell-based
hP2X7 V312A = hP2X7 V312A (Homo sapiens, UniProt Q99572, V312A); test: Whole-cell patch clamp, hP2X7 mutant; format: cell-based
hP2X7 E305C = hP2X7 E305C (Homo sapiens, UniProt Q99572, E305C); test: Whole-cell patch clamp, hP2X7 mutant; format: cell-based; conditions: h7E305C, 30 μM (Fig. S3b)
human P2X7 [2] = test: Literature IC50; conditions: from Table S1 values
human P2X4 = conditions: cited from earlier work
human P2X3 = conditions: read-out: IC50 (half-maximal inhibitory concentration); hP2X3; cited from earlier work
mP2X7 A312V = target: T4, mP2X7 A312V (Mus musculus, UniProt Q9Z1M0, A312V); test: Whole-cell patch clamp, mP2X7 mutant; format: cell-based; conditions: read-out: EC50 (apparent affinity for ATP); m7A312V
T4 sequence (Q9Z1M0 1-595 A312V): T2 sequence (Q9Z1M0 1-595) with A312V

[3] = HEK293, read-out: inhibition rate

Sequence of hP2X7 E305F (Q99572 whole entry E305F): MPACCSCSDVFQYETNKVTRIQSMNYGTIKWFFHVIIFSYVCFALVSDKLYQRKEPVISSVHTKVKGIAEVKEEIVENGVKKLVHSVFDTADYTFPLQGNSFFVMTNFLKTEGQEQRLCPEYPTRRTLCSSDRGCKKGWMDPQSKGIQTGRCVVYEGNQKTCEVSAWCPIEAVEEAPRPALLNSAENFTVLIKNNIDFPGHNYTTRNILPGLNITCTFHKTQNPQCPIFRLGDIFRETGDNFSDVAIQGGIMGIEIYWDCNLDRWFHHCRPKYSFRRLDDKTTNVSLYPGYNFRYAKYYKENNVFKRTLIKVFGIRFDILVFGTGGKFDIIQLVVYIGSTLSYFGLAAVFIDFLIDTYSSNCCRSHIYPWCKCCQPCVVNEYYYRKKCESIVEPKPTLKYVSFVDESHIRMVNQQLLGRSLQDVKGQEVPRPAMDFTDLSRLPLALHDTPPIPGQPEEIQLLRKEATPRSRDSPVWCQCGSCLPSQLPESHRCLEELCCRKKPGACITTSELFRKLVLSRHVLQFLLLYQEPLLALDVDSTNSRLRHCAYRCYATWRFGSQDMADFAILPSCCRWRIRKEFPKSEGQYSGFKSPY
Sequence of hP2X7 Y295F (Q99572 whole entry Y295F): as the sequence (Q99572 whole entry E305F) above, with Y295F, F305E counted along it
Sequence of hP2X7 I68F (Q99572 whole entry I68F): as the sequence (Q99572 whole entry E305F) above, with I68F, F305E counted along it
Sequence of hP2X7 V312A (Q99572 whole entry V312A): as the sequence (Q99572 whole entry E305F) above, with F305E, V312A counted along it
Sequence of hP2X7 M140E (Q99572 whole entry M140E): as the sequence (Q99572 whole entry E305F) above, with M140E, F305E counted along it
Sequence of hP2X7 F88A (Q99572 whole entry F88A): as the sequence (Q99572 whole entry E305F) above, with F88A, F305E counted along it
Sequence of hP2X7 F103A (Q99572 whole entry F103A): as the sequence (Q99572 whole entry E305F) above, with F103A, F305E counted along it
Sequence of hP2X7 E305C (Q99572 whole entry E305C): as the sequence (Q99572 whole entry E305F) above, with F305C counted along it

Structure (SMILES): COc1ccc(CC(=O)NC(NC(=NC#N)Nc2cccc3ncccc23)C(C)(C)C)cc1OC (centres unmarked) [A740003, N-(1-{[(cyanoimino)(5-quinolinylamino)methyl]amino}-2,2-dimethylpropyl)-2-(3,4-dimethoxyphenyl)acetamide]
- IC50 (human P2X7 [1]; P2X7): 0.0437 µM
- fold difference in IC50 between hP2X7 and mP2X7 (human P2X7 [1]): 37 fold

Structure (SMILES): CC(C)c1cc(Br)c(NC(=O)Nc2cccnc2)c(Br)c1 [BX430]
- IC50 (human P2X4; P2X4): 0.54 µM
- IC50 for hP2X4, fold lower than for mP2X4 and rP2X4 (human P2X4): more than 20 fold
- fold difference between hP2X4 and mP2X4 (human P2X4): > 20 fold

Structure (SMILES): CNC(=O)c1cc(F)c(-c2nc3cc(C)ccn3c2C[C@H]2CN(C(=O)OC)CCO2)c(F)c1 [BLU-5937]
- IC50 (human P2X3): 0.025 µM

Now from value to molecule:

- IC50 (hP2X7): 12.6 ± 2.9 µM
- fold difference in affinity for hP2X7 between PSFL1191 and PSFL1190 (hP2X7): more than 50 fold
- inhibition at 30 µM (mP2X7; [3]): 11.8 ± 6.1%
- inhibition at 30 µM (rP2X7): 12.1 ± 2.4%
Structure (SMILES): C=CC[C@H]1c2ccc(OC)c(OC)c2CN2CCc3cc4c(cc3[C@@H]12)OCO4 [PSFL1190, (13S,13aR)-13-allyl-9,10-dimethoxy-5,8,13,13a-tetrahydro-6H-1,3dioxolo[4,5-g] isoquinolino[3,2-a]isoquinoline]

- IC50 (hP2X7): 12.7 ± 0.9 µM
- inhibition at 300 µM (mP2X7; [3]): 8.02 ± 2.7%
- inhibition at 300 µM (rP2X7): 19.2 ± 4.3%
- IC50 (hP2X7 I68F): 39.9 ± 5.8 µM
- inhibitory effect vs h7WT (hP2X7 I68F; h7I68F, 30 μM (Fig. S3b)): notably attenuated
- inhibitory effect vs h7WT (hP2X7 F88A): notably attenuated
- inhibitory effect vs h7WT (hP2X7 F103A): notably attenuated
- inhibitory effect vs h7WT (hP2X7 M140E): notably attenuated
- IC50 (hP2X7 Y295F): 46.6 ± 7.8 µM
- inhibitory effect vs h7WT (hP2X7 Y295F; h7Y295F, 30 μM (Fig. S3b)): notably attenuated
- IC50 (hP2X7 E305F): 87.7 ± 4.3 µM
- inhibitory effect vs h7WT (hP2X7 E305F; h7E305F, 30 μM (Fig. S3b)): notably attenuated
- IC50 (hP2X7 V312A): > 300 µM
- inhibitory effect vs h7WT (hP2X7 V312A; h7V312A, 30 μM (Fig. S3b)): notably attenuated
- inhibitory effect vs h7WT (hP2X7 E305C): notably attenuated
Structure (SMILES): COc1ccc2cc3[n+](cc2c1OC)CCc1cc2c(cc1-3)OCO2 [berberine]

- apparent affinity (IC50) for hP2X7, fold higher than for mP2X7 (human P2X7 [2]): 500 fold
- apparent affinity (IC50) for hP2X7, fold higher than for rP2X7 (human P2X7 [2]): 1587 fold
Structure (SMILES): O=C(CC12CC3CC(CC(C3)C1)C2)Nc1cccc2nc(NCCNCCO)ccc12 [AZ10606120]

- EC50 (mP2X7; read-out: EC50 (apparent affinity for ATP), m7WT): 782 ± 71 µM
- EC50 (mP2X7 A312V): 1420 ± 170 µM
Structure (SMILES): Nc1ncnc2c1ncn2[C@@H]1O[C@H](COP(=O)(O)OP(=O)(O)OP(=O)(O)O)[C@@H](O)[C@H]1O [ATP, reference compound]
